The numbers were not newly measured in PMC4860011 (Biochemistry, 2015), which cites them from elsewhere.

This data set addresses bsNOS (Bacillus subtilis, UniProt O34453). The following applies: read-out: KD of imidazole; used to convert KS,app to KS.

Structures are written as SMILES.

Chain of bsNOS (O34453 whole entry): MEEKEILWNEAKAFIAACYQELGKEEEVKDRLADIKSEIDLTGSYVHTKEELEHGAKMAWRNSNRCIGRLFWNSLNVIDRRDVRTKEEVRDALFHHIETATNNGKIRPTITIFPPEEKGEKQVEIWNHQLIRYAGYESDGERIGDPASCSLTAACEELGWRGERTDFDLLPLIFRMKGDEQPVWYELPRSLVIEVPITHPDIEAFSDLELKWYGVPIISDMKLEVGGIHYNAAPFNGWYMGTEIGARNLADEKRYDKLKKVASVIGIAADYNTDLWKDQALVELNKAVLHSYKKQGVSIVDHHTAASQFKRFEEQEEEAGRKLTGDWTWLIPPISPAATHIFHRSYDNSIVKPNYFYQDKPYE

Regarding `c1c[nH]cn1` [imidazole], the Kd is 384 µM.
